#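 Growth conditions: 96-well plates. Treatment: test compound, 48 hours, 5 concentrations. Analysis: linear interpolation between bracketing concentrations; unreached endpoints set to highest concentration. TGI: total growth inhibition.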
# How the values were obtained:
# Test in all cases: NCI anticancer screen, dose series, 48 h
# HCT-15 colon = system: HCT-15 colon
# M14 melanoma = system: M14 melanoma
# K-562 leukemia = system: K-562 leukemia
# A498 renal = system: A498 renal
# IGROV1 ovarian = system: IGROV1 ovarian
# LOX IMVI melanoma = system: LOX IMVI melanoma
# SK-OV-3 ovarian = system: SK-OV-3 ovarian
# SF-295 CNS = system: SF-295 CNS
# LXFL 529 NSCLC = system: LXFL 529 NSCLC
# MALME-3M melanoma = system: MALME-3M melanoma
# COLO 205 colon = system: COLO 205 colon
# A549 NSCLC = system: A549 NSCLC
# 786-0 renal = system: 786-0 renal
# SF-268 CNS = system: SF-268 CNS
# OVCAR-8 ovarian = system: OVCAR-8 ovarian
# KM20L2 colon = system: KM20L2 colon
# NCI-H460 lung = system: NCI-H460 lung
# HCC-2998 colon = system: HCC-2998 colon
# SK-MEL-2 melanoma = system: SK-MEL-2 melanoma
# TK-10 renal = system: TK-10 renal
# SN12C renal = system: SN12C renal
# SNB-19 CNS = system: SNB-19 CNS
# DMS 273 small cell lung = system: DMS 273 small cell lung
# UACC-62 melanoma = system: UACC-62 melanoma
# HOP-62 NSCLC = system: HOP-62 NSCLC
# HCT-116 colon = system: HCT-116 colon
# NCI-H23 lung = system: NCI-H23 lung
# SW-620 colon = system: SW-620 colon
# UACC-257 melanoma = system: UACC-257 melanoma
# U251 CNS = system: U251 CNS
# HT29 colon = system: HT29 colon
# CAKI-1 renal = system: CAKI-1 renal
# SNB-75 CNS = system: SNB-75 CNS
# SNB-78 CNS = system: SNB-78 CNS
# NCI-H522 lung = system: NCI-H522 lung
# M19-MEL melanoma = system: M19-MEL melanoma
# SK-MEL-5 melanoma = system: SK-MEL-5 melanoma
# UO-31 renal = system: UO-31 renal
# MOLT-4 leukemia = system: MOLT-4 leukemia
# OVCAR-5 ovarian = system: OVCAR-5 ovarian
# SK-MEL-28 melanoma = system: SK-MEL-28 melanoma
# CCRF-CEM leukemia = system: CCRF-CEM leukemia
# RXF 393 renal = system: RXF 393 renal
# EKVX NSCLC = system: EKVX NSCLC
# ACHN renal = system: ACHN renal
# DMS 114 small cell lung = system: DMS 114 small cell lung
# RPMI-8226 leukemia = system: RPMI-8226 leukemia
# NCI-H226 lung = system: NCI-H226 lung
# SF-539 CNS = system: SF-539 CNS
# XF 498 CNS = system: XF 498 CNS
# OVCAR-3 ovarian = system: OVCAR-3 ovarian
# KM12 colon = system: KM12 colon
# HL-60(TB) leukemia = system: HL-60(TB) leukemia
# DLD-1 colon = system: DLD-1 colon
# HOP-18 NSCLC = system: HOP-18 NSCLC
# HOP-92 NSCLC = system: HOP-92 NSCLC
# OVCAR-4 ovarian = system: OVCAR-4 ovarian
# SR leukemia = system: SR leukemia
smiles,measurement,setting,value
COC(=O)[C@@H]1c2[nH]c3ccccc3c2C[C@@H]2c3ccccc3NC(=O)[C@@H]21,TGI,HCT-15 colon,> 100 µM
same,TGI,M14 melanoma,> 100 µM
same,TGI,K-562 leukemia,> 100 µM
same,TGI,A498 renal,> 100 µM
same,TGI,IGROV1 ovarian,> 100 µM
same,TGI,LOX IMVI melanoma,> 100 µM
same,TGI,SK-OV-3 ovarian,> 100 µM
same,TGI,SF-295 CNS,> 31.6 µM
same,TGI,LXFL 529 NSCLC,> 100 µM
same,TGI,MALME-3M melanoma,> 100 µM
same,TGI,COLO 205 colon,> 100 µM
same,TGI,A549 NSCLC,> 100 µM
same,TGI,786-0 renal,> 100 µM
same,TGI,SF-268 CNS,> 31.6 µM
same,TGI,OVCAR-8 ovarian,> 100 µM
same,TGI,KM20L2 colon,> 100 µM
same,TGI,NCI-H460 lung,> 100 µM
same,TGI,HCC-2998 colon,> 100 µM
same,TGI,SK-MEL-2 melanoma,> 100 µM
same,TGI,TK-10 renal,> 100 µM
same,TGI,SN12C renal,> 100 µM
same,TGI,SNB-19 CNS,> 100 µM
same,TGI,DMS 273 small cell lung,> 100 µM
same,TGI,UACC-62 melanoma,> 100 µM
same,TGI,HOP-62 NSCLC,54.3 µM
same,TGI,HCT-116 colon,> 100 µM
same,TGI,NCI-H23 lung,> 100 µM
same,TGI,SW-620 colon,> 100 µM
same,TGI,UACC-257 melanoma,> 100 µM
same,TGI,U251 CNS,> 100 µM
same,TGI,HT29 colon,> 100 µM
same,TGI,CAKI-1 renal,> 100 µM
same,TGI,SNB-75 CNS,60.6 µM
same,TGI,SNB-78 CNS,> 100 µM
same,TGI,NCI-H522 lung,> 100 µM
same,TGI,M19-MEL melanoma,> 100 µM
same,TGI,SK-MEL-5 melanoma,> 100 µM
same,TGI,UO-31 renal,> 100 µM
same,TGI,MOLT-4 leukemia,> 100 µM
same,TGI,OVCAR-5 ovarian,> 100 µM
same,TGI,SK-MEL-28 melanoma,> 100 µM
same,TGI,CCRF-CEM leukemia,> 100 µM
same,TGI,RXF 393 renal,> 100 µM
same,TGI,EKVX NSCLC,> 100 µM
same,TGI,ACHN renal,> 100 µM
same,TGI,DMS 114 small cell lung,> 100 µM
same,TGI,RPMI-8226 leukemia,> 100 µM
same,TGI,NCI-H226 lung,> 60.8 µM
same,TGI,SF-539 CNS,> 100 µM
same,TGI,XF 498 CNS,> 100 µM
same,TGI,OVCAR-3 ovarian,> 100 µM
same,TGI,KM12 colon,> 100 µM
same,TGI,HL-60(TB) leukemia,> 100 µM
same,TGI,DLD-1 colon,> 100 µM
Cc1c(C)n(COCCO)c2ncnc(N)c12,TGI,HCT-15 colon,> 100 µM
same,TGI,M14 melanoma,> 100 µM
same,TGI,K-562 leukemia,> 100 µM
same,TGI,A498 renal,> 100 µM
same,TGI,IGROV1 ovarian,> 100 µM
same,TGI,SK-OV-3 ovarian,> 100 µM
same,TGI,SF-295 CNS,> 100 µM
same,TGI,LXFL 529 NSCLC,> 100 µM
same,TGI,COLO 205 colon,> 100 µM
same,TGI,A549 NSCLC,> 100 µM
same,TGI,786-0 renal,> 100 µM
same,TGI,SF-268 CNS,> 100 µM
same,TGI,OVCAR-8 ovarian,> 100 µM
same,TGI,KM20L2 colon,> 100 µM
same,TGI,NCI-H460 lung,> 100 µM
same,TGI,HCC-2998 colon,> 100 µM
same,TGI,SK-MEL-2 melanoma,> 100 µM
same,TGI,TK-10 renal,> 100 µM
same,TGI,SN12C renal,> 100 µM
same,TGI,SNB-19 CNS,> 100 µM
same,TGI,DMS 273 small cell lung,> 100 µM
same,TGI,NCI-H23 lung,> 100 µM
same,TGI,SW-620 colon,> 100 µM
same,TGI,HOP-18 NSCLC,> 100 µM
same,TGI,U251 CNS,> 100 µM
same,TGI,HT29 colon,> 100 µM
same,TGI,CAKI-1 renal,> 100 µM
same,TGI,SNB-75 CNS,> 100 µM
same,TGI,NCI-H522 lung,> 100 µM
same,TGI,M19-MEL melanoma,> 100 µM
same,TGI,HOP-92 NSCLC,> 100 µM
same,TGI,SK-MEL-5 melanoma,> 100 µM
same,TGI,UO-31 renal,> 100 µM
same,TGI,MOLT-4 leukemia,> 100 µM
same,TGI,SK-MEL-28 melanoma,> 100 µM
same,TGI,CCRF-CEM leukemia,> 100 µM
same,TGI,RXF 393 renal,> 100 µM
same,TGI,EKVX NSCLC,> 100 µM
same,TGI,OVCAR-4 ovarian,> 100 µM
same,TGI,ACHN renal,> 100 µM
same,TGI,SR leukemia,> 100 µM
same,TGI,RPMI-8226 leukemia,> 100 µM
same,TGI,NCI-H226 lung,> 100 µM
same,TGI,SF-539 CNS,> 100 µM
same,TGI,XF 498 CNS,> 100 µM
same,TGI,OVCAR-3 ovarian,> 100 µM
same,TGI,KM12 colon,> 100 µM
same,TGI,HL-60(TB) leukemia,> 100 µM
same,TGI,DLD-1 colon,> 100 µM
